Some test systems named below: COLO 205; HCT-15; NCI-H522; BT-549; RPMI-8226; HOP-92; UO-31; T47D; IGROV-1; HOP-62; TK-10; K562; NCI-H226; EKVX; LOX IMVI; SK-MEL-5; A549; CAKI-1; HCC 2998; SK-MEL-28.
Assay in all cases: DTP human tumour cell line panel, 48 h

As a reminder, the GI50 is the concentration at which growth is held to half of that of the control.

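Each compound was tested at five concentrations against cells in 96-well plates for 48 hours. GI50 marks 50% less growth.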 The source made the active and inactive calls. No stated cut-off is given here; in the data, active = GI50 up to about 1.1 µM and inactive = higher.

On to `CC(=O)O[C@H]1CC[C@@]2(C)C(=CC[C@@H]3[C@@H]2CC[C@](C)(c2nnc(C)o2)[C@H]3CC#N)C1`, for which the GI50 in the experiment on COLO 205 was > 100 µM (inactive); in the experiment with HCT-15, more than 100 µM; in the experiment on NCI-H522, > 100 µM (inactive); in the experiment on BT-549, > 100 µM (inactive); in the experiment on RPMI-8226, > 100 µM (inactive); in the experiment with HOP-92, > 100 µM (inactive). The GI50 in the experiment with UO-31, in the experiment on T47D, in the experiment with IGROV-1, in the experiment with HOP-62, with TK-10 and in the experiment with K562 was > 100 µM (inactive) throughout. The GI50 with NCI-H226, with EKVX, in the experiment with LOX IMVI, in the experiment on SK-MEL-5, in the experiment on A549 and with CAKI-1 was > 100 µM (inactive) each time.
In the case of `COC(=O)C/N=C1\NC(=S)N(Cc2ccc(OC)cc2)C12CCCC2`, the GI50 in the experiment on COLO 205 is > 100 µM (inactive); in the experiment with HCC 2998, > 100 µM (inactive); with SK-MEL-28, > 100 µM (inactive); in the experiment on HCT-15, more than 100 µM; in the experiment with NCI-H522, > 100 µM (inactive); with BT-549, > 100 µM (inactive). Further, the GI50 with RPMI-8226, with HOP-92, with UO-31, with T47D, with HOP-62 and in the experiment with K562 was > 100 µM (inactive) each time. Further, the GI50 in the experiment on NCI-H226, in the experiment with EKVX, in the experiment on A549 and in the experiment on CAKI-1 was > 100 µM (inactive) throughout.
`Cc1csc(NCc2ccc(Cl)cc2)n1`: the GI50 in the experiment on COLO 205 is 24.1 µM (inactive); in the experiment with SK-MEL-28, 85.1 µM (inactive); with HCT-15, 39.1 µM; in the experiment on NCI-H522, 28.9 µM (inactive); in the experiment on BT-549, 62.7 µM (inactive); in the experiment on RPMI-8226 it was 44 µM (inactive). In addition, the GI50 in the experiment with HOP-92 was 23.4 µM (inactive); in the experiment with UO-31, 37.4 µM (inactive); in the experiment with T47D it was 28.9 µM (inactive); in the experiment on IGROV-1 it was 45.9 µM (inactive); with HOP-62 it was > 100 µM (inactive); in the experiment on TK-10, > 100 µM (inactive). For the same molecule, the GI50 in the experiment on K562 was 45.7 µM (inactive); with NCI-H226, 33.8 µM (inactive); in the experiment with EKVX, 32.7 µM (inactive); with LOX IMVI it was 99.3 µM (inactive); in the experiment with SK-MEL-5, 23.7 µM (inactive); in the experiment with A549, 40.5 µM (inactive). The GI50 with CAKI-1 is 60.5 µM (inactive).
On to `C[Si](C)(C)C#Cc1cc(-c2nc3ccccc3s2)ccc1N`, for which the GI50 was 15.5 µM (inactive) in the experiment with COLO 205; 16.9 µM in the experiment on HCT-15; 13.9 µM (inactive) with NCI-H522; 18.3 µM (inactive) with BT-549; 21.8 µM (inactive) in the experiment on RPMI-8226; 11.5 µM (inactive) in the experiment with HOP-92. Also, the GI50 with UO-31 is 13.4 µM (inactive); in the experiment with T47D it was 18.7 µM (inactive); with IGROV-1, < 0.01 µM (active); in the experiment with HOP-62, 16.2 µM (inactive); in the experiment on TK-10, 11.7 µM (inactive); in the experiment on K562, 27.8 µM (inactive). Besides, the GI50 with NCI-H226 is 14.4 µM (inactive); in the experiment on EKVX, 12 µM (inactive); in the experiment with LOX IMVI, 17.8 µM (inactive); in the experiment with SK-MEL-5, 15.5 µM (inactive); in the experiment on A549 it was 19.4 µM (inactive); with CAKI-1, 14.2 µM (inactive).
On to `COc1ccc(C2C(C#N)=C(S)N(C3OC(CO)C(O)C(O)C3O)C(c3ccccc3)=C2C(C)=O)cc1` (stereo not given), for which the GI50 in the experiment with COLO 205 is > 100 µM (inactive); with HCC 2998, 92 µM (inactive); with SK-MEL-28, 91.8 µM (inactive); with HCT-15, 74.6 µM; in the experiment on NCI-H522, 26.9 µM (inactive); in the experiment with BT-549, > 100 µM (inactive). The GI50 in the experiment on RPMI-8226 was 51.3 µM (inactive); in the experiment on HOP-92, 46.1 µM (inactive); in the experiment on UO-31 it was > 100 µM (inactive); in the experiment on T47D, 6.18 µM (inactive); in the experiment with IGROV-1, > 100 µM (inactive); in the experiment on HOP-62, 67.1 µM (inactive). For the same molecule, the GI50 with TK-10 was > 100 µM (inactive); with K562, 43.6 µM (inactive); in the experiment with NCI-H226, > 100 µM (inactive); with LOX IMVI, 60.1 µM (inactive); with SK-MEL-5, 25.1 µM (inactive); with A549 it was > 100 µM (inactive).
With `C=C(Br)C(C)(Br)CCC(Br)C(C)(C)Cl` (stereo not given), the GI50 with COLO 205 was 18.5 µM (inactive); in the experiment with HCC 2998, 17.4 µM (inactive); in the experiment on SK-MEL-28, 16.3 µM (inactive); in the experiment on HCT-15 it was 13 µM; in the experiment on NCI-H522, 6.62 µM (inactive); in the experiment on BT-549, 23.8 µM (inactive). Also, the GI50 in the experiment with RPMI-8226 is 15.4 µM (inactive); in the experiment with HOP-92, 14.6 µM (inactive); in the experiment on UO-31 it was 17.7 µM (inactive); in the experiment with T47D it was 20.5 µM (inactive); with IGROV-1, 13.6 µM (inactive); in the experiment on HOP-62 it was 23 µM (inactive). Moreover, the GI50 in the experiment with TK-10 is 18.2 µM (inactive); in the experiment with K562, 10.2 µM (inactive); with NCI-H226 it was 31 µM (inactive); in the experiment on EKVX it was 22.8 µM (inactive); with SK-MEL-5, 17.2 µM (inactive); with A549, > 54.7 µM (inactive).
In the case of `Nc1ccc(-c2nnc(-c3c(Cl)c(Cl)c(Cl)c(Cl)c3-c3nc4cc(C(=O)c5ccccc5)ccc4[nH]3)o2)cc1`, the GI50 is 18.6 µM (inactive) with COLO 205; 28.5 µM (inactive) in the experiment on SK-MEL-28; 15.7 µM in the experiment on HCT-15; 13.5 µM (inactive) in the experiment with NCI-H522; 24.6 µM (inactive) in the experiment with BT-549; 14.8 µM (inactive) in the experiment with RPMI-8226. Also, the GI50 in the experiment on HOP-92 is 27.2 µM (inactive); in the experiment on UO-31 it was 35.7 µM (inactive); with T47D, 18.3 µM (inactive); in the experiment with IGROV-1, 28.5 µM (inactive); with HOP-62 it was 21.6 µM (inactive); with TK-10 it was 27.5 µM (inactive). For the same molecule, the GI50 is 8 µM (inactive) in the experiment with K562; 18 µM (inactive) in the experiment on NCI-H226; 28.6 µM (inactive) in the experiment with EKVX; 34.6 µM (inactive) in the experiment with LOX IMVI; 11.1 µM (inactive) in the experiment on SK-MEL-5; 28.1 µM (inactive) in the experiment with A549. For the same molecule, in the experiment on CAKI-1, the GI50 is 48.1 µM (inactive).
For the molecule `Sc1nnc(SCc2ccccc2Cl)c2nc[nH]c12`, the GI50 with COLO 205 was > 100 µM (inactive); in the experiment on SK-MEL-28, > 100 µM (inactive); in the experiment with HCT-15 it was more than 100 µM; with NCI-H522 it was > 100 µM (inactive); in the experiment with BT-549 it was > 100 µM (inactive); with RPMI-8226 it was > 100 µM (inactive). Also, the GI50 with HOP-92, in the experiment with UO-31, in the experiment with T47D, in the experiment on IGROV-1, in the experiment with HOP-62 and with TK-10 was > 100 µM (inactive) in each case. The GI50 in the experiment on K562 is > 100 µM (inactive); with NCI-H226, > 100 µM (inactive); with EKVX it was 74.8 µM (inactive); in the experiment with LOX IMVI it was > 100 µM (inactive); in the experiment with SK-MEL-5, > 100 µM (inactive); with A549, > 100 µM (inactive). Further, the GI50 in the experiment with CAKI-1 is > 100 µM (inactive).

Values taken from ChEMBL document CHEMBL1201862, “PubChem BioAssay data set” (2004).
